As usually defined, the IC50 is the concentration at which inhibition is half-maximal. A higher IC50 goes with weaker potency in that assay.

Structures are written as SMILES.

The test system of this assay is replicon. Kind of assay: Replicon assay. Format: cell-based. A general note: Replicon systems follow genome replication, usually without infectious particles.
Regarding `CCCN(NC(=O)[C@@H]1[C@@H]2[C@H](CN1C(=O)[C@@H](NC(=O)N[C@H](CN(C)S(C)(=O)=O)C(C)(C)C)C(C)(C)C)C2(C)C)C(=O)N[C@@H](C)c1ccccc1` [Compound 2], the half-maximal inhibitory concentration (IC50) was ≤ 500 nM.

Regarding `CCCN(NC(=O)[C@@H]1[C@@H]2[C@H](CN1C(=O)[C@@H](NC(=O)N[C@H](CN1C(=O)CC(C)(C)CC1=O)C(C)(C)C)C(C)(C)C)C2(C)C)C(=O)N[C@@H](C)c1ccccc1` [Compound 3], the IC50 is ≤ 500 nM.

Regarding `CCCN(NC(=O)[C@@H]1[C@@H]2[C@H](CN1C(=O)[C@@H](NC(=O)NC1(CS(=O)(=O)C(C)(C)C)CCCCC1)C1(C)CCCCC1)C2(C)C)C(=O)N[C@@H](C)c1ccccc1` [Compound 1], the concentration for half-maximal inhibition (IC50) is 500 to 3000 nM.

In the case of `CCCN(NC(=O)[C@@H]1[C@@H]2[C@H](CN1C(=O)[C@@H](NC(=O)N[C@H](CN1C(=O)C3CCC(C3)C1=O)C(C)(C)C)C(C)(C)C)C2(C)C)C(=O)N[C@@H](C)c1ccccc1` [Compound 5], the IC50 was ≤ 500 nM.

The molecule `C[C@H](NC(=O)N(CC1CC1)NC(=O)[C@@H]1[C@@H]2[C@H](CN1C(=O)[C@@H](NC(=O)N[C@H](CN1C(=O)C3CCC(C3)C1=O)C(C)(C)C)C(C)(C)C)C2(C)C)c1ccccc1` [Compound 6] gave a concentration for half-maximal inhibition (IC50) of 500 to 3000 nM.
